Active and inactive are the calls of the source. The calls are words filed in the database; no cut-off is given here.
Columns and labels:
Plasma = assay: Anti-platelet aggregation in platelet-rich plasma of male Japanese white rabbit assessed as inhibition of ADP-induced platelet aggregation preincubated for 15 mins followed by ADP addition measured up to 10 mins by Born's turbidometric method; assay type: functional, cell-free; details: Oryctolagus cuniculus
HT-22 = assay: Neuroprotective activity against H2O2-induced oxidative stress in mouse HT-22 cells assessed as cell viability at 10 uM preincubated for 2 hrs followed by H2O2 addition measured after 24 hrs by MTT assay (reference value: 55 +/- 4.6 %); assay type: functional; details: for viability at 10 µM: time 26 hrs, read-out: Activity; for Activity: time 26.0 hrs

Row | SMILES | IC50 (Plasma) [µM] | viability at 10 µM (HT-22) [%] | Activity (HT-22)
1 | CCc1nc(-c2cccc(C#N)c2)n(OCc2ccc(C#N)cc2)c1C(=O)O | 4.09 | 70.6 | –
2 | N#Cc1ccc(COn2c(-c3cccc(C#N)c3)nc(-c3cncs3)c2C(=O)O)cc1 | 2.63 | – | inactive
3 | N#Cc1ccc(-c2ncc(C(=O)O)c(OCc3ccccc3C#N)n2)cc1 | > 10 | – | inactive
4 | N#Cc1ccc(COn2c(-c3cccc(C#N)c3)nc(-c3nccs3)c2C(=O)O)cc1 | 4.52 | – | inactive
5 | CS(=O)(=O)Nc1cccc(Oc2nc(-c3cccc(C#N)c3)ncc2C(=O)O)c1 | 8.08 | 79.1 | –
6 | N#Cc1ccc(COn2c(-c3cccc(C#N)c3)nc(-c3cccnc3)c2C(=O)O)cc1 | > 10 | – | inactive
7 | N#Cc1cccc(-c2ncc(C(=O)O)c(Oc3ccccc3C#N)n2)c1 | 3.37 | – | inactive
8 | COCc1nc(-c2cccc(C#N)c2)n(OCc2ccc(C#N)cc2)c1C(=O)O | 1.62 | – | inactive
9 | N#Cc1ccc(Nc2nc(-c3ccc(C#N)cc3)ncc2C(=O)O)cc1 | 9.99 | 91.1 | –
10 | N#Cc1ccc(Oc2nc(-c3cccc(C#N)c3)ncc2C(=O)O)cc1 | 4.82 | – | inactive
11 | N#Cc1ccc(COc2nc(-c3ccc(C#N)cc3)ncc2C(=O)O)cc1 | > 10 | 88.2 | –
12 | N#Cc1ccc(COn2c(-c3cccc(C#N)c3)nc(-c3ccoc3)c2C(=O)O)cc1 | 7.61 | – | inactive
13 | N#Cc1cccc(-c2nc(C(F)F)c(C(=O)O)n2OCc2cocn2)c1 | 1.69 | – | inactive
14 | N#Cc1ccc(-c2ncc(C(=O)O)c(Oc3cccc(C#N)c3)n2)cc1 | 4.36 | 98.9 | –
15 | N#Cc1cccc(-c2ncc(C(=O)O)c(OCc3ccccc3C#N)n2)c1 | > 10 | 95.8 | –
16 | N#Cc1cccc(-c2nc(C(F)F)c(C(=O)O)n2OCc2csc(N3CCOCC3)n2)c1 | 4.7 | – | inactive

Row | SMILES | IC50 (Plasma) [µM] | viability at 10 µM (HT-22) [%] | Activity (HT-22)
17 | CC(C)Cc1nc(-c2cccc(C#N)c2)n(OCc2ccc(C#N)cc2)c1C(=O)O | 2.08 | 76.1 | –
18 | N#Cc1ccc(COn2c(-c3cccc(C#N)c3)nc(C3CCCCC3)c2C(=O)O)cc1 | 2.61 | – | inactive
19 | N#Cc1ccc(COc2nc(-c3cccc(C#N)c3)ncc2C(=O)O)cc1 | 3.08 | – | inactive
20 | N#Cc1ccc(COn2c(-c3cccc(C#N)c3)nc(-c3cnccn3)c2C(=O)O)cc1 | 4.11 | – | inactive
21 | CC(=O)Nc1cccc(Oc2nc(-c3cccc(C#N)c3)ncc2C(=O)O)c1 | 7.99 | 88.2 | –
22 | N#Cc1ccc(COn2c(-c3cccc(C#N)c3)nc(-c3ccncc3)c2C(=O)O)cc1 | > 10 | – | inactive
23 | N#Cc1cccc(-c2nc(C(F)F)c(C(=O)O)n2OCc2ccncc2)c1 | 5.34 | – | inactive
24 | N#Cc1cccc(-c2nc(C(F)F)c(C(=O)O)n2OCc2ccccn2)c1 | > 10 | 75.9 | –
25 | Cc1nc(-c2cccc(C#N)c2)nc(OCc2ccc(C#N)cc2)c1C(=O)O | 5.02 | – | inactive
26 | N#Cc1cccc(-c2nc(C(F)F)c(C(=O)O)n2OCc2nccs2)c1 | 2.79 | – | inactive
27 | N#Cc1ccc(COn2c(-c3cccc(C#N)c3)nc(C(F)(F)F)c2C(=O)O)cc1 | 1.8 | 75.6 | –
28 | N#Cc1cccc(Nc2nc(-c3cccc(C#N)c3)ncc2C(=O)O)c1 | 7.79 | – | inactive
29 | CC1(c2nc(-c3cccc(C#N)c3)n(OCc3ccc(C#N)cc3)c2C(=O)O)CCC1 | 2.99 | 72.4 | –
30 | N#Cc1ccc(Oc2nc(-c3ccc(C#N)cc3)ncc2C(=O)O)cc1 | 4.62 | 91.3 | –
31 | N#Cc1ccc(Nc2nc(-c3cccc(C#N)c3)ncc2C(=O)O)cc1 | > 10 | 84.9 | –
